Earlier results on 1 compound are cited in patent US5948422A, “Oral dosage-forms containing a β-lactam antibiotic” (Yamanouchi Europe B.V., priority 1995, dated 1999).

The conditions of this series: compared with free acid, other salts and ester.

Each structure is given as a SMILES string. Structures can show the parent of a compound that is named as a salt.

As for `CC1(C)S[C@@H]2[C@H](NC(=O)COc3ccccc3)C(=O)N2[C@H]1C(=O)O` [potassium salt, phenoxymethylpenicillin potassium], the “bioavailability on oral administration” value is given as “best bioavailability”.
